Results from PubChem BioAssay (NCI).
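Results reflect a 48-hour exposure of cells in 96-well plates to compound at five concentrations. GI50: concentration for 50% inhibition of growth. At the TGI there is no net growth.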

Assays:
Test in all cases: NCI-60 cell line screen, 48 h
[1] = test system: 786-0 renal
[2] = test system: A498 renal
[3] = test system: A549 NSCLC
[4] = test system: ACHN renal
[5] = test system: BT-549 breast
[6] = test system: CAKI-1 renal
[7] = test system: CCRF-CEM leukemia
[8] = test system: COLO 205 colon
[9] = test system: DU-145 prostate
[10] = test system: EKVX NSCLC
[11] = test system: HCC-2998 colon
[12] = test system: HCT-116 colon
[13] = test system: HCT-15 colon
[14] = test system: HL-60(TB) leukemia
[15] = test system: HOP-62 NSCLC
[16] = test system: HOP-92 NSCLC
[17] = test system: HS 578T breast
[18] = test system: HT29 colon
[19] = test system: IGROV1 ovarian
[20] = test system: K-562 leukemia
[21] = test system: KM12 colon
[22] = test system: LOX IMVI melanoma
[23] = test system: M14 melanoma
[24] = test system: MALME-3M melanoma
[25] = test system: MCF7 breast
[26] = test system: MDA-MB-231 breast
[27] = test system: MDA-MB-435
[28] = test system: MOLT-4 leukemia
[29] = test system: NCI-H226 lung
[30] = test system: NCI-H23 lung
[31] = test system: NCI-H460 lung
[32] = test system: NCI-H522 lung
[33] = test system: NCI/ADR-RES ovarian
[34] = test system: OVCAR-3 ovarian
[35] = test system: OVCAR-4 ovarian
[36] = test system: OVCAR-5 ovarian
[37] = test system: OVCAR-8 ovarian
[38] = test system: PC-3 prostate
[39] = test system: RPMI-8226 leukemia
[40] = test system: RXF 393 renal
[41] = test system: SF-268 CNS
[42] = test system: SF-295 CNS
[43] = test system: SF-539 CNS
[44] = test system: SK-MEL-2 melanoma
[45] = test system: SK-MEL-28 melanoma
[46] = test system: SK-MEL-5 melanoma
[47] = test system: SK-OV-3 ovarian
[48] = test system: SN12C renal
[49] = test system: SNB-19 CNS
[50] = test system: SNB-75 CNS
[51] = test system: SR leukemia
[52] = test system: SW-620 colon
[53] = test system: T-47D breast
[54] = test system: TK-10 renal
[55] = test system: U251 CNS
[56] = test system: UACC-257 melanoma
[57] = test system: UACC-62 melanoma
[58] = test system: UO-31 renal

NC(N)=N/N=C/c1cccc(Cl)c1Cl
GI50 [1]: 11.1 µM | TGI [1]: 24.7 µM | GI50 [2]: 11.1 µM | TGI [2]: 25.6 µM | GI50 [3]: 7.51 µM | TGI [3]: 21.9 µM | GI50 [4]: 12.4 µM | TGI [4]: 25.9 µM | GI50 [5]: 13.2 µM | TGI [5]: 28.7 µM | GI50 [6]: 6.62 µM | TGI [6]: 21.8 µM | GI50 [7]: 7.26 µM | TGI [7]: 29.2 µM | GI50 [8]: 1690 nM | TGI [8]: 3.13 µM | GI50 [9]: 9.18 µM | TGI [9]: 21.1 µM | GI50 [10]: 9.02 µM | TGI [10]: 24.2 µM | GI50 [11]: 1730 nM | TGI [11]: 3.47 µM | GI50 [12]: 3.24 µM | TGI [12]: 10.8 µM | GI50 [13]: 3.25 µM | TGI [13]: 11.7 µM | GI50 [14]: 3.46 µM | TGI [14]: 8.16 µM | GI50 [15]: 11.7 µM | TGI [15]: 24.1 µM | GI50 [16]: 1190 nM | TGI [16]: 5.88 µM | GI50 [17]: 12.2 µM | TGI [17]: 34.9 µM | GI50 [18]: 2310 nM | TGI [18]: 5.98 µM | GI50 [19]: 11 µM | TGI [19]: 25.6 µM | GI50 [20]: 3.92 µM | TGI [20]: 13.9 µM | GI50 [21]: 2170 nM | TGI [21]: 4.91 µM | GI50 [22]: 2490 nM | TGI [22]: 8.4 µM | GI50 [23]: 1980 nM | TGI [23]: 4.04 µM | GI50 [24]: 4.62 µM | TGI [24]: 18.1 µM | GI50 [25]: 2090 nM | TGI [25]: 5.03 µM | GI50 [26]: 3.63 µM | TGI [26]: 14.7 µM | GI50 [27]: 1770 nM | TGI [27]: 3.89 µM | GI50 [28]: 6.13 µM | TGI [28]: 23.9 µM | GI50 [29]: 13.6 µM | TGI [29]: 29.2 µM | GI50 [30]: 11.2 µM | TGI [30]: 26.4 µM | GI50 [31]: 3.76 µM | TGI [31]: 14.7 µM | GI50 [32]: 3.16 µM | TGI [32]: 13.6 µM | GI50 [33]: 8.38 µM | TGI [33]: 24 µM | GI50 [34]: 4.55 µM | TGI [34]: 14.9 µM | GI50 [35]: 13 µM | TGI [35]: 26.8 µM | GI50 [36]: 12.4 µM | TGI [36]: 26.3 µM | GI50 [37]: 8.93 µM | TGI [37]: 25.8 µM | GI50 [38]: 10.8 µM | TGI [38]: 23.6 µM | GI50 [39]: 3.39 µM | TGI [39]: 15.1 µM | GI50 [40]: 4.75 µM | TGI [40]: 18.3 µM | GI50 [41]: 11.8 µM | TGI [41]: 25.5 µM | GI50 [42]: 2830 nM | TGI [42]: 10.3 µM | GI50 [43]: 15.6 µM | TGI [43]: 31.2 µM | GI50 [44]: 2220 nM | TGI [44]: 4.16 µM | GI50 [45]: 4.24 µM | TGI [45]: 14.7 µM | GI50 [46]: 2330 nM | TGI [46]: 6.64 µM | GI50 [47]: 7.06 µM | TGI [47]: 20 µM | GI50 [48]: 3.92 µM | TGI [48]: 16.3 µM | GI50 [49]: 3.32 µM | TGI [49]: 11.8 µM | GI50 [50]: 11.6 µM | TGI [50]: 26.9 µM | GI50 [51]: 2720 nM | TGI [51]: 11.2 µM | GI50 [52]: 2250 nM | TGI [52]: 5.89 µM | GI50 [53]: 1540 nM | TGI [53]: 3.64 µM | GI50 [54]: 11.9 µM | TGI [54]: 24.4 µM | GI50 [55]: 3.4 µM | TGI [55]: 13.2 µM | GI50 [56]: 6.26 µM | TGI [56]: 20.6 µM | GI50 [57]: 1850 nM | TGI [57]: 4.96 µM | GI50 [58]: 10.1 µM | TGI [58]: 22.7 µM
